Results from patent publication US20230226061A1, “COMBINATION CANCER THERAPY WITH DYRK1 INHIBITORS AND INHIBITORS OF THE RAS-RAF-MEK-ERK (MAPK) PATHWAY” (Felicitex Therapuetics, Inc., priority 2022, published 2023).
Read-outs that look alike come from different tables or passages of the source.

Key:
[1] = test system: NSCLC H23 cells (KRAS-G12C); assay: Cell viability assay in 2D cell culture (CellTiter-Glo), H23; conditions: for EC50: Homo sapiens, NCI-H23, 96 h
[2] = test system: NSCLC A549 cells (KRAS-G12S); assay: Cell viability assay in 2D cell culture (CellTiter-Glo), A549; conditions: for EC50: A549, 96 h
[3] = test system: 3D spheroids of NSCLC H23 cells (KRAS-G12C); assay: Cell viability assay in 3D cell culture (spheroids), H23; type: cell-based; conditions: Homo sapiens, NCI-H23, H23 3D spheroids, read-out: EC50 for trametinib
Experimental: (§1) For the treatment, 50 μL of media was removed from each well and replaced with fresh media with compounds. […] If the treatment time exceeded 4 days, 70 μL of media in each well was replaced with fresh media containing the test compound every fourth day. Each treatment was performed in duplicate. […] Prior to analysis, the spheroids were photographed at 50× magnification.
as §1, with “magnification” for “magnification.”

[4] = test system: colon cancer SW620 cells (G12V); assay: FACS analysis of cell cycle distribution (acridine orange), SW620; type: cell-based; conditions: SW620, 5 μM Compound I-7 and 20 nM trametinib, 24 hours
Experimental: SW620 cells were cultured, treated, and analyzed as described in Example 1. The results when different concentrations of trametinib, Compound I-7, or both trametinib and Compound I-7 are present are shown in FIG. 10.

[5] = test system: H2122 NSCLC cells (KRAS G12C); assay: FACS analysis of cell cycle distribution (acridine orange), H2122; type: cell-based
[6] = test system: NSCLC H2122 cells (KRAS-G12C); assay: Cell viability assay in 2D cell culture (CellTiter-Glo), H2122
[7] = test system: DYRK1B, MAPK, p27 in SW620 cells; assay: Western blot analysis of protein expression in SW620 cells; type: cell-based; conditions: SW620, 20 nM trametinib and 5 μM compound I-7, vs trametinib alone
Experimental: For Western Blot analysis cells were seeded into 6-well plates at 5×10^5-9×10^5 cells/well (depending on the cell size and rate of proliferation), allowed to attach for 24 hours, then treated with compounds for 24 hours, and harvested. Immunoblotting was performed using conventional techniques, as described in Cell Signaling Technologies Western Blotting protocol (www.cellsignal.com).
Antibodies used for blotting were from Cell Signaling Technology (CST): DYRK1B (D40D1) Rabbit mAb #5672; β-Actin (13E5) Rabbit mAb #4970; Anti-rabbit IgG, HIRP-linked Antibody #7074. The Primary Antibody Dilution Buffer 1×TBST with 5% BSA (CST #9998) was used. For detection, SignalFire™ ECL Reagent (CST #6883) was used.
The expression levels of DYRK1B, ph-t202 MAPK, total MAPK, ph-S10 p27, total p27 and β-actin in SW620 cells following the 24 hours treatment with trametinib or combination of trametinib and compound I-7 as observed by Western blot analysis are shown in FIG. 13. The expression of DYRK1B protein was compared to that in untreated cells incubated in regular growth medium containing FBS (FBS+) or serum free medium (FBS−), single treatment with trametinib to the treatment with combination of trametinib and compound I-7.

[8] = test system: ovarian cancer OVCAR cells (wild KRAS); assay: Cell viability assay in 2D cell culture (CellTiter-Glo), OVCAR; type: cell-based; conditions: for EC50: 96 h
[9] = test system: NSCLC H358 cells (KRAS-G12C); assay: Cell viability assay in 2D cell culture (CellTiter-Glo), H358
[10] = test system: NSCLC H1975 cells (wild-type KRAS); assay: Cell viability assay in 2D cell culture (CellTiter-Glo), H1975; type: cell-based; conditions: for EC50: Homo sapiens, NCI-H1975, 96 h, H1975, 96 h
[11] = test system: quiescent and proliferating pancreatic cancer cells; conditions: reported by Ewton et al. 2011; cited from earlier work
[12] = H2122, 5 μM Compound I-7 and 100 nM AMG-510, FBS+
[13] = H2122, 5 μM Compound I-7 and 100 nM MRTX 849, 48 hours

In the case of `CC(=O)Nc1cccc(-n2c(=O)n(C3CC3)c(=O)c3c(Nc4ccc(I)cc4F)n(C)c(=O)c(C)c32)c1` [trametinib], the EC50 ([1]; read-out: EC50 for trametinib, H23 2D, 96 h, Compound I-7 not present) is reported as 19.2 nM, the EC50 ([1]; read-out: EC50 for trametinib, H23 2D, 96 h, Compound I-7 present at 0.12 μM) is reported as 15.5 nM and the EC50 ([1]; read-out: EC50 for trametinib, H23 2D, 96 h, Compound I-7 present at 3.3 μM) is reported as 11.8 nM. It also gave an EC50 ([2]; read-out: EC50 for trametinib, Compound I-7 not present) of 16.2 nM, an EC50 ([2]; read-out: EC50 for trametinib, Compound I-7 present at 2.2 μM) of 16 nM and an EC50 ([2]; read-out: EC50 for trametinib, Compound I-7 present at 6.73 μM) of 3.2 nM. The EC50 ([3]; Compound I-7 not present) was 1.7 nM, the EC50 ([3]; Compound I-7 present at 5 μM) was 1.2 nM and the EC50 ([3]; Compound I-7 present at 10 μM) was < 0.01 nM.
In the case of `CCOC(=N)c1nc2ccc3ncnc(Nc4cc(F)c(F)cc4Cl)c3c2s1` [Compound I-7], the “effect of combination on cytotoxicity” value ([1]; H23, combined with trametinib) is reported as “synergistic”, the “apoptotic cells (sub-G0 population)” value [4] is reported as “significant increases in apoptotic cells” and the “fraction of cells in G0” value ([4]; vs trametinib alone) is reported as “reduced the fraction of cells in G0”. For the same compound, the “apoptotic cells (sub-G0 fraction)” value [5, 12] was “large increase in apoptotic cells”, the “proportion of quiescent cells” value [5, 12] was “no such increase in proportion of quiescent cells was observed” and the “apoptotic cells (sub-G0 population)” value [5, 13] was “significant increases in apoptotic cells”. For the same compound, the “fraction of cells in G0” value [5, 13] was “reduced the fraction of cells in G0”, the “effect of combination on cytotoxicity of selumetinib” value ([2]; A549, combined with selumetinib) was “significant increase in cytotoxicity” and the “effect of combination on cytotoxicity” value ([2]; A549, combined with trametinib) was “synergistic”. For the same compound, the “effect of combination on cytotoxicity” value ([6]; H2122, combined with AMG-510) was “synergistic”, the “effect of combination on cytotoxicity” value ([6]; H2122, combined with MRTX-849) was “synergistic” and the “phosphorylation of p27 (Western blot)” value [7] was “decrease of the phosphorylation of p27”. The “total levels of p27 (Western blot)” value [7] was “decrease”.
For `c1cncc(-c2ccnc3ccc(-c4c[nH]c5ncccc45)cc23)c1` [Compound II-1], the “effect of combination on cytotoxicity” value ([8]; combined with selumetinib) was “synergistic effect”, the “effect of combination on cytotoxicity” value ([9]; H358, combined with AMG-510) was “synergistic” and the “effect of combination on cytotoxicity” value ([9]; H358, combined with MRTX-849) was “synergistic”. For the same compound, the “effect of combination on cytotoxicity” value ([10]; H1975, combined with selumetinib) was “synergistic effect”.
In the case of `Cn1cnc2c(F)c(Nc3ccc(Br)cc3Cl)c(C(=O)NOCCO)cc21` [selumetinib], the EC50 ([8]; Compound I-7 not present, highest selumetinib concentration 50 μM) is reported as 238000 nM, the EC50 ([8]; Compound I-7 present at 1 μM, read-out: EC50 for selumetinib) is reported as 173000 nM and the EC50 ([8]; Compound I-7 present, read-out: EC50 for selumetinib) is reported as < 100 nM. For the same compound, the EC50 ([2]; read-out: EC50 for selumetinib, Compound I-7 not present) was 2350 nM, the EC50 ([2]; read-out: EC50 for selumetinib, Compound I-7 present at 3 μM) was 920 nM and the EC50 ([2]; read-out: EC50 for selumetinib, Compound I-7 present at 6 μM) was 10 nM. The EC50 ([10]; Compound II-1 not present, highest selumetinib concentration 20 μM) was 59000 nM and the EC50 ([10]; Compound II-1 present at 1 μM, read-out: EC50 for selumetinib) was 130 nM.
In the case of `COc1ncc2cc(C(=O)Nc3cc(C(=O)NCc4cccc(Cl)c4)ccc3Cl)c(=O)[nH]c2n1` [TC-S 7004], the “effectiveness against quiescent and proliferating cancer cells in vitro” value [11] is listed as “effective against both quiescent and proliferating cancer cells”.
